Results published in paper PMC11633381 (mBio, 2024).

How the values were obtained:
BoSusB (BoGH97CSus) = target: T1, BoSusB (BoGH97CSus) (Bacteroides ovatus, UniProt A0AAN3A6N4); assay: co-crystal structure; competitive inhibition kinetics with pNP-Glc; type: biochemical
T1 construct: gene BACOVA_03519; N-terminal 6x His tag, recombinant

BoGH97D = target: T2, BoGH97D (Bacteroides ovatus, UniProt A0ABU3IP51); assay: competitive inhibition kinetics with pNP-Glc; type: biochemical
T2 construct: gene RO706_07160; N-terminal 6x His tag, recombinant

BoSusG (BoGH13ASus) = target: T3, BoSusG (BoGH13ASus) (Bacteroides ovatus, UniProt A0ABU3ISA0); assay: EnzChek fluorescent starch amylase assay; type: biochemical
T3 construct: gene RO706_06355

BoSusA (BoGH13BSus) [1] = target: T4, BoSusA (BoGH13BSus) (Bacteroides ovatus, UniProt A0ABU3INP3); assay: inhibition kinetics with pNP-G6 (αKi); also ITC binding to free enzyme; type: biochemical; conditions: read-out: Inhibition constant
T4 construct: gene RO706_06385; cloned starting with A90 (A23 in SusA numbering)

BoSusA (BoGH13BSus) [2] = target: T5, BoSusA (BoGH13BSus) (Bacteroides ovatus, UniProt A0ABU3INP3, D331N); assay: isothermal titration calorimetry; type: binding
T5 construct: gene RO706_06385; cloned starting with A90 (A23 in SusA numbering)

SusA [3] = target: T6, SusA (Bacteroides thetaiotaomicron, UniProt Q8A1G0); assay: inhibition kinetics with pNP-G6 (αKi); also ITC binding to free enzyme; type: biochemical
T6 construct: cloned starting with T23

SusA [4] = target: T7, SusA (Bacteroides thetaiotaomicron, UniProt Q8A1G0, D331N); assay: isothermal titration calorimetry; type: binding
T7 construct: cloned starting with T23

BtGH97H = target: T8, BtGH97H (Bacteroides thetaiotaomicron, UniProt Q89YZ9); assay: competitive inhibition kinetics with pNP-Glc; type: biochemical
T8 construct: gene BT_4581; N-terminal 6x His tag, recombinant

## C[C@H]1O[C@H](O[C@H]2[C@H](O)[C@@H](O)[C@@H](O[C@H]3[C@H](O)[C@@H](O)C(O)O[C@@H]3CO)O[C@@H]2CO)[C@H](O)[C@@H](O)[C@@H]1N[C@H]1C=C(CO)[C@@H](O)[C@H](O)[C@H]1O (some centres unmarked) [acarbose]
BoSusB (BoGH97CSus)
  Ki: 69.3 ± 8.9 nM
BoGH97D
  Ki: 134 ± 22.4 nM
BoSusG (BoGH13ASus)
  IC50: 2200 ± 350 nM
BoSusA (BoGH13BSus) [1]
  Ki: 123 ± 9.2 nM
BoSusA (BoGH13BSus) [2]
  isothermal titration calorimetry: Wild-type enzyme has two acarbose-binding sites, whereas a catalytically inert variant of each enzyme (D331N) has one
SusA [3]
  Ki: 94.7 ± 6.9 nM
SusA [4]
  isothermal titration calorimetry: Wild-type enzyme has two acarbose-binding sites, whereas a catalytically inert variant of each enzyme (D331N) has one
BtGH97H
  Ki: 162 ± 24.3 nM
